Test results reported in the NIST ThermoML archive (doi:10.1021/je100765j).
± gives the expanded uncertainty stated by the source.

Experiment: xn = mol fraction of the nth substance listed
Conditions: 101 kPa, Liquid; for speed of sound: Sing-around technique in a fixed-path interferometer

`CCC(C)Cl` (configuration not stated) [2-chlorobutane] + CC(C)OC(C)C showed a mass density (298.15 K, x1 = 0.0519) of 724.535 ± 0.94 kg/m3, a mass density (298.15 K, x1 = 0.0988) of 730.22 ± 0.93 kg/m3 and a mass density (298.15 K, x1 = 0.2006) of 742.995 ± 0.9 kg/m3. The mass density (298.15 K, x1 = 0.3211) was 758.802 ± 0.87 kg/m3, the mass density (298.15 K, x1 = 0.4201) was 772.485 ± 0.84 kg/m3 and the mass density (298.15 K, x1 = 0.532) was 788.75 ± 0.81 kg/m3. It also gave a mass density (298.15 K, x1 = 0.6244) of 802.882 ± 0.78 kg/m3, a mass density (298.15 K, x1 = 0.726) of 819.123 ± 0.75 kg/m3 and a mass density (298.15 K, x1 = 0.8163) of 834.307 ± 0.72 kg/m3. The mass density (298.15 K, x1 = 0.8817) was 845.724 ± 0.69 kg/m3, the mass density (298.15 K, x1 = 0.9634) was 860.57 ± 0.66 kg/m3 and the speed of sound (303.15 K, x1 = 0.0519) was 979.57 ± 1.1 m/s. It also gave a speed of sound (303.15 K, x1 = 0.0988) of 982.73 ± 1.1 m/s, a speed of sound (303.15 K, x1 = 0.2006) of 989.5 ± 1.1 m/s and a speed of sound (303.15 K, x1 = 0.3211) of 997.66 ± 1.1 m/s. For the same compound, the speed of sound (303.15 K, x1 = 0.4201) was 1004.4 ± 1.1 m/s, the speed of sound (303.15 K, x1 = 0.532) was 1012.3 ± 1.1 m/s and the speed of sound (303.15 K, x1 = 0.6244) was 1018.8 ± 1.1 m/s. The speed of sound (303.15 K, x1 = 0.726) was 1026.1 ± 1.1 m/s, the speed of sound (303.15 K, x1 = 0.8163) was 1032.6 ± 1.1 m/s and the speed of sound (303.15 K, x1 = 0.8817) was 1037.2 ± 1.1 m/s. It also gave a speed of sound (303.15 K, x1 = 0.9634) of 1043.2 ± 1.1 m/s, a mass density (303.15 K, x1 = 0.0519) of 719.276 ± 0.95 kg/m3 and a mass density (303.15 K, x1 = 0.0988) of 724.919 ± 0.94 kg/m3. For the same compound, the mass density (303.15 K, x1 = 0.2006) was 737.649 ± 0.91 kg/m3, the mass density (303.15 K, x1 = 0.3211) was 753.411 ± 0.88 kg/m3 and the mass density (303.15 K, x1 = 0.4201) was 767.06 ± 0.85 kg/m3. For the same compound, the mass density (303.15 K, x1 = 0.532) was 783.263 ± 0.82 kg/m3, the mass density (303.15 K, x1 = 0.6244) was 797.355 ± 0.79 kg/m3 and the mass density (303.15 K, x1 = 0.726) was 813.555 ± 0.76 kg/m3. For the same compound, the mass density (303.15 K, x1 = 0.8163) was 828.698 ± 0.73 kg/m3, the mass density (303.15 K, x1 = 0.8817) was 840.084 ± 0.7 kg/m3 and the mass density (303.15 K, x1 = 0.9634) was 854.895 ± 0.68 kg/m3. It also gave a speed of sound (308.15 K, x1 = 0.0519) of 957.51 ± 1.1 m/s, a speed of sound (308.15 K, x1 = 0.0988) of 960.7 ± 1.1 m/s and a speed of sound (308.15 K, x1 = 0.2006) of 967.56 ± 1.1 m/s. For the same compound, the speed of sound (308.15 K, x1 = 0.3211) was 975.92 ± 1.1 m/s, the speed of sound (308.15 K, x1 = 0.4201) was 982.81 ± 1.1 m/s and the speed of sound (308.15 K, x1 = 0.532) was 990.84 ± 1.1 m/s. It also gave a speed of sound (308.15 K, x1 = 0.6244) of 997.54 ± 1.1 m/s, a speed of sound (308.15 K, x1 = 0.726) of 1005 ± 1.1 m/s and a speed of sound (308.15 K, x1 = 0.8163) of 1011.6 ± 1.1 m/s. For the same compound, the speed of sound (308.15 K, x1 = 0.8817) was 1016.4 ± 1.1 m/s, the speed of sound (308.15 K, x1 = 0.9634) was 1022.6 ± 1.1 m/s and the mass density (308.15 K, x1 = 0.0519) was 713.939 ± 0.96 kg/m3. The mass density (308.15 K, x1 = 0.0988) was 719.569 ± 0.95 kg/m3, the mass density (308.15 K, x1 = 0.2006) was 732.261 ± 0.92 kg/m3 and the mass density (308.15 K, x1 = 0.3211) was 747.973 ± 0.89 kg/m3. It also gave a mass density (308.15 K, x1 = 0.4201) of 761.571 ± 0.86 kg/m3, a mass density (308.15 K, x1 = 0.532) of 777.737 ± 0.83 kg/m3 and a mass density (308.15 K, x1 = 0.6244) of 791.784 ± 0.8 kg/m3. The mass density (308.15 K, x1 = 0.726) was 807.944 ± 0.77 kg/m3, the mass density (308.15 K, x1 = 0.8163) was 823.046 ± 0.74 kg/m3 and the mass density (308.15 K, x1 = 0.8817) was 834.402 ± 0.72 kg/m3. It also gave a mass density (308.15 K, x1 = 0.9634) of 849.179 ± 0.69 kg/m3, a speed of sound (313.15 K, x1 = 0.0519) of 935.64 ± 1.1 m/s and a speed of sound (313.15 K, x1 = 0.0988) of 938.87 ± 1.1 m/s. The speed of sound (313.15 K, x1 = 0.2006) was 945.88 ± 1.1 m/s, the speed of sound (313.15 K, x1 = 0.3211) was 954.34 ± 1.1 m/s and the speed of sound (313.15 K, x1 = 0.4201) was 961.42 ± 1.1 m/s. For the same compound, the speed of sound (313.15 K, x1 = 0.532) was 969.67 ± 1.1 m/s, the speed of sound (313.15 K, x1 = 0.6244) was 976.57 ± 1.1 m/s and the speed of sound (313.15 K, x1 = 0.726) was 984.26 ± 1.1 m/s. It also gave a speed of sound (313.15 K, x1 = 0.8163) of 991.15 ± 1.1 m/s, a speed of sound (313.15 K, x1 = 0.8817) of 996.09 ± 1.1 m/s and a speed of sound (313.15 K, x1 = 0.9634) of 1002.5 ± 1.1 m/s. The mass density (313.15 K, x1 = 0.0519) was 708.573 ± 0.97 kg/m3, the mass density (313.15 K, x1 = 0.0988) was 714.181 ± 0.96 kg/m3 and the mass density (313.15 K, x1 = 0.2006) was 726.833 ± 0.93 kg/m3. For the same compound, the mass density (313.15 K, x1 = 0.3211) was 742.484 ± 0.9 kg/m3, the mass density (313.15 K, x1 = 0.4201) was 756.049 ± 0.87 kg/m3 and the mass density (313.15 K, x1 = 0.532) was 772.166 ± 0.84 kg/m3. The mass density (313.15 K, x1 = 0.6244) was 786.18 ± 0.81 kg/m3, the mass density (313.15 K, x1 = 0.726) was 802.287 ± 0.78 kg/m3 and the mass density (313.15 K, x1 = 0.8163) was 817.349 ± 0.75 kg/m3. For the same compound, the mass density (313.15 K, x1 = 0.8817) was 828.683 ± 0.73 kg/m3 and the mass density (313.15 K, x1 = 0.9634) was 843.442 ± 0.7 kg/m3.
